What all share (assay type): in vivo
For one test, the system named is Meloidogyne incognita. The experiment in a line: Meloidogyne incognita test (gall formation on lettuce roots). The conditions noted are these: 336 h, Aufwandmenge 20ppm, after 14 days, read-out: Wirkung (nematizide Wirkung anhand der Gallenbildung). The source says:
Zur Herstellung einer zweckmäßigen Wirkstoffzubereitung vermischt man 1 Gewichtsteil Wirkstoff mit der angegebenen Menge Lösungsmittel und verdünnt das Konzentrat mit Wasser auf die gewünschte Konzentration.
Gefäße werden mit Sand, Wirkstofflösung, einer Ei-Larven-Suspension des südlichen Wurzelgallenälchens (Meloidogyne incognita) und Salatsamen gefüllt. Die Salatsamen keimen und die Pflänzchen entwickeln sich. An den Wurzeln entwickeln sich die Gallen.
Nach 14 Tagen wird die nematizide Wirkung anhand der Gallenbildung in % bestimmt. Dabei bedeutet 100 %, dass keine Gallen gefunden wurden; 0 % bedeutet, dass die Zahl der Gallen an den behandelten Pflanzen der unbehandelten Kontrolle entspricht.

In another test the test system is Lucilia cuprina. Put plainly: Lucilia cuprina test (L1 larvae on treated minced horse meat). Particulars: 48 h, Aufwandmenge 100ppm, after 2 days, read-out: Wirkung (Abtötung). How it is done: Zur Herstellung einer zweckmäßigen Wirkstoffzubereitung vermischt man 10 mg Wirkstoff mit 0,5 ml Dimethylsulfoxid und verdünnt das Konzentrat mit Wasser auf die gewünschte Konzentration.
Ca. 20 L1-Larven der Australischen Schafgoldfliege (Lucilia cuprina) werden in ein Testgefäß überführt, welches gehacktes Pferdefleisch und die Wirkstoffzubereitung der gewünschten Konzentration enthält.
Nach 2 Tagen wird die Abtötung in % bestimmt. Dabei bedeutet 100 %, dass alle Larven abgetötet wurden; 0 % bedeutet, dass keine Larven abgetötet wurden.

A further test deals with Spodoptera frugiperda. The experiment in a line: Spodoptera frugiperda spray test (maize leaf discs, caterpillars). The conditions noted are these: foliar, 168 h, Aufwandmenge 500g/ha, after 7 days, read-out: Wirkung. The source says:
(§1) Zur Herstellung einer zweckmäßigen Wirkstoffzubereitung löst man 1 Gewichtsteil Wirkstoff mit den angegebenen Gewichtsteilen Lösungsmittel und füllt mit Wasser, welches eine Emulgatorkonzentration von 1000 ppm enthält, bis zum Erreichen der gewünschten Konzentration auf. Zur Herstellung weiterer Testkonzentrationen wird mit emulgatorhaltigem Wasser verdünnt.
Maisblattscheiben (Zea mays) werden mit einer Wirkstoffzubereitung der gewünschten Konzentration gespritzt und nach dem Abtrocknen mit Raupen des Heerwurms (Spodoptera frugiperda) besetzt.
Nach 7 Tagen wird die Wirkung in % bestimmt. Dabei bedeutet 100 %, dass alle Raupen abgetötet wurden; 0 % bedeutet, dass keine Raupe abgetötet wurde.

The next test has as its system Phaedon cochleariae. Put plainly: Phaedon cochleariae spray test (Chinese cabbage leaf discs, larvae). Particulars: foliar, 168 h, read-out: Wirkung.
Text: as §1
Chinakohlblattscheiben (Brassica pekinensis) werden mit einer Wirkstoffzubereitung der gewünschten Konzentration gespritzt und nach dem Abtrocknen mit Larven des Meerrettichblattkäfers (Phaedon cochleariae) besetzt.
Nach 7 Tagen wird die Wirkung in % bestimmt. Dabei bedeutet 100 %, dass alle Käferlarven abgetötet wurden; 0 % bedeutet, dass keine Käferlarven abgetötet wurden.

The next test relates to Ctenocephalides felis. Put plainly: Ctenocephalides felis oral test (feeding on treated citrated cattle blood). The conditions noted are these: 48 h, Aufwandmenge 100ppm, after 2 days, read-out: Wirkung (Abtötung). How it is done:
Zwecks Herstellung einer zweckmäßigen Wirkstoffzubereitung vermischt man 10 mg Wirkstoff mit 0,5 ml Dimethylsulfoxid. Durch Verdünnen mit citriertem Rinderblut erhält man die gewünschte Konzentration.
Ca. 20 nüchterne adulte Katzenflöhe (Ctenocephalides felis) werden in eine Kammer eingesetzt, die oben und unten mit Gaze verschlossen ist. Auf die Kammer wird ein Metallzylinder gestellt, dessen Unterseite mit Parafilm verschlossen ist. Der Zylinder enthält die Blut-Wirkstoffzubereitung, die von den Flöhen durch die Parafilmmembran aufgenommen werden kann.
Nach 2 Tagen wird die Abtötung in % bestimmt. Dabei bedeutet 100 %, dass alle Flöhe abgetötet wurden; 0 % bedeutet, dass keiner der Flöhe abgetötet wurde.

The subject of a further test is Myzus persicae. Put plainly: Myzus persicae spray test (Chinese cabbage leaf discs). The conditions noted are these: foliar, 144 h, Aufwandmenge 500g/ha, after 6 days, read-out: Wirkung.
Text: as §1
Chinakohlblattscheiben (Brassica pekinensis), die von allen Stadien der Grünen Pfirsichblattlaus (Myzus persicae) befallen sind, werden mit einer Wirkstoffzubereitung der gewünschten Konzentration gespritzt.
Nach 6 Tagen wird die Wirkung in % bestimmt. Dabei bedeutet 100 %, dass alle Blattläuse abgetötet wurden; 0 % bedeutet, dass keine Blattläuse abgetötet wurden.

Structures are written as SMILES.

With `O=C(Nc1cc(-c2ccc(OC(F)(F)F)cc2)cc(NC(=O)C2CC2)n1)C1CC1` [I-001, N,N'-{4-[4-(Trifluormethoxy)phenyl]pyridin-2,6-diyl}dicyclopropancarboxamid], in the test on Meloidogyne incognita, the inhibition at 20 µg/mL is 90%. The figures for the mortality at 100 µg/mL in the test with Lucilia cuprina and in the test with Ctenocephalides felis were 95% and 100%, respectively. The mortality at 500 g/ha in the test on Spodoptera frugiperda and in the test with Phaedon cochleariae was 100% in each case.

As for `O=C(Nc1cc(-c2ccc(OC(F)(F)F)cc2)cc(NC(=O)C2(c3ccccc3)CC2)n1)C1CC1` [I-008], in the test with Myzus persicae, the mortality at 500 g/ha is 90%.

(Values after patent EP3284739A1, “SUBSTITUTED (HET) ARYL COMPOUNDS AS PESTICIDES” (Bayer CropScience Aktiengesellschaft, priority 2017, dated 2018).)
